Source: ChEMBL document CHEMBL1135282, “Novel potent antagonists of human neuropeptide Y Y5 receptor. Part 1: 2-oxobenzothiazolin-3-acetic acid derivatives” (Bioorg Med Chem Lett, 2002)

Tests used:
[1] = Plasma concentration after oral administration of 100 mg/kg to rats; assay type: ADME, organism-based; parameters: dose 100 mg/kg, route oral; conditions: rat
[2] = molecular target: T1, Neuropeptide Y receptor type 5 (Homo sapiens, UniProt Q15761); experiment: (§1) Tested for the inhibition of [125I]PYY binding to HEK 293 cells stably expressed with human neuropeptide NPY Y5 receptor at a concentration of 10e-6 M; assay type: cell-based, HEK293
T1 sequence (Q15761 whole entry): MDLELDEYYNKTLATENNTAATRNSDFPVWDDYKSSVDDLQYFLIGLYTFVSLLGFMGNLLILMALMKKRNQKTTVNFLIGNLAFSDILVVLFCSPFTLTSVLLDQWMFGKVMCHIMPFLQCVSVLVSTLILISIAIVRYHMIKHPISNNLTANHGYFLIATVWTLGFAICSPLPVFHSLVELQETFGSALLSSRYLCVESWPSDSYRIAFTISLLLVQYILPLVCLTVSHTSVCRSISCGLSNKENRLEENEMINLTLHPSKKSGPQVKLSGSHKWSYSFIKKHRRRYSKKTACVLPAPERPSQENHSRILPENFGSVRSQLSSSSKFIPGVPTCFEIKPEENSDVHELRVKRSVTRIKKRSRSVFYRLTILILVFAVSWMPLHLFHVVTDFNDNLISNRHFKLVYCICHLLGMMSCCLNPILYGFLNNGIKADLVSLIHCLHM

[3] = molecular target: T2, Neuropeptide Y receptor type 5 (Homo sapiens) (UniProt Q15761); experiment: Tested for the inhibition of [125I]PYY binding to HEK 293 cells stably expressed with human neuropeptide NPY Y5 receptor at a concentration of 10e-7 M; assay type: cell-based; conditions: HEK293
T2 sequence (whole entry): T1 sequence (Q15761 whole entry)

[4] = molecular target: T2, Neuropeptide Y receptor type 5 (Homo sapiens); experiment: Tested for the inhibition of [125I]PYY binding to HEK 293 cells stably expressed with human neuropeptide NPY Y5 receptor at a concentration of 10e-8 M; assay type: cell-based; conditions: HEK293
[5] = molecular target: T2, Neuropeptide Y receptor type 5 (Homo sapiens); experiment: Tested for the inhibition of [125I]PYY binding to HEK 293 cells stably expressed with human neuropeptide NPY Y5 receptor at a concentration of 10e-9 M; assay type: cell-based; conditions: HEK293
[6] = molecular target: T1, Neuropeptide Y receptor type 5; experiment: Inhibitory concentration of total specific binding of [125I]- -PYY to HEK 293 cells transfected with Human NPY-Y5 cDNA (compound prepared by manual synthesis technique); assay type: cell-based, HEK293
[7] = molecular target: T1, Neuropeptide Y receptor type 5; experiment: Inhibitory concentration of total specific binding of [125I]- -PYY to HEK 293 cells transfected with the Human NPY-Y5 cDNA (compound prepared by parallel synthesis technique); assay type: cell-based, HEK293
[8] = molecular target: T2, Neuropeptide Y receptor type 5 (Homo sapiens); experiment: as §1; assay type: cell-based; conditions: HEK293
[9] = molecular target: T1, Neuropeptide Y receptor type 5; experiment: Tested for the inhibition of [125I]PYY binding to HEK 293 cells stably expressed with human neuropeptide NPY Y5 receptor; assay type: cell-based, HEK293

| Cmax [1] | IC50 [2] | inhibition [3] | inhibition [4] | inhibition [5] | IC50 [6] | IC50 [7] | inhibition [8] | IC50 [9] | Compound |
| --- | --- | --- | --- | --- | --- | --- | --- | --- | --- |
| 15700 ng/mL | 3.3 nM | – | – | – | – | – | – | – | Cc1cccc(C(O)CNC(=O)C2CCN(C(=O)Cn3c(=O)sc4ccc(Cl)cc43)CC2)n1 (stereo unspecified) [FR-235208] |
| – | – | 102% | 68.4% | 16.5% | 3.8 nM | 4.7 nM | 86.2% | – | O=C(Nc1nc2cc(Cl)ccc2o1)C1CCN(C(=O)Cn2c(=O)sc3ccc(Cl)cc32)CC1 |
| – | – | -3.9% | – | – | – | – | 87.9% | – | CN(CCc1ccccn1)C(=O)C1CCN(C(=O)Cn2c(=O)sc3ccc(Cl)cc32)CC1 |
| – | – | 97.7% | 93.2% | 52.6% | 0.59 nM | 0.7 nM | 104% | – | O=C(Nc1ccc(F)c(C(F)(F)F)c1)C1CCN(C(=O)Cn2c(=O)sc3ccc(Cl)cc32)CC1 |
| – | – | 97.1% | 79.4% | 47.8% | 1.2 nM | 1.1 nM | 108% | – | O=C(NCC(O)c1ccccc1)C1CCN(C(=O)Cn2c(=O)sc3ccc(Cl)cc32)CC1 (stereo unspecified) |
| – | – | 99% | 83.4% | 49.3% | 17 nM | 0.71 nM | 108% | – | O=C(Nc1cccc2ccccc12)C1CCN(C(=O)Cn2c(=O)sc3ccc(Cl)cc32)CC1 |
| – | – | 88.5% | 70.3% | 29.9% | 2.3 nM | 2.6 nM | 94% | – | COc1ccc(NC(=O)C2CCN(C(=O)Cn3c(=O)sc4ccc(Cl)cc43)CC2)cn1 |
| – | – | 98.5% | 76.8% | 41.5% | 0.59 nM | 2 nM | 100% | – | CC(=O)c1cccc(NC(=O)C2CCN(C(=O)Cn3c(=O)sc4ccc(Cl)cc43)CC2)c1 |
| – | – | 91.4% | 41.1% | 5.6% | 4.7 nM | 1.4 nM | 95% | – | Cc1cc(O)ccc1NC(=O)C1CCN(C(=O)Cn2c(=O)sc3ccc(Cl)cc32)CC1 |
| – | – | 15.6% | – | – | – | – | 77.2% | – | O=C(Cn1c(=O)sc2ccc(Cl)cc21)N1CCC(C(=O)N2CCc3ccccc3C2)CC1 |
| – | – | – | 43.1% | – | – | – | 43.1% | – | O=C(Cn1c(=O)sc2ccc(Cl)cc21)N1CCC(C(=O)N2CCc3ccccc32)CC1 |
| – | – | 101% | 74.6% | 28.7% | 1.7 nM | 2.9 nM | 84.7% | – | O=C(Nc1ccc(CCO)cc1)C1CCN(C(=O)Cn2c(=O)sc3ccc(Cl)cc32)CC1 |
| – | – | 105% | 61.6% | 11.5% | 2.3 nM | 1.4 nM | 98% | – | COc1ccc(CNC(=O)C2CCN(C(=O)Cn3c(=O)sc4ccc(Cl)cc43)CC2)cc1 |
| – | – | – | – | – | – | – | – | 0.23 nM | O=C(Nc1ccc(Cl)c2ccccc12)C1CCN(C(=O)Cn2c(=O)sc3ccc(Cl)cc32)CC1 [FR-236478] |
| – | – | 99.4% | 94.5% | 53.2% | 1.5 nM | 0.85 nM | 97.2% | – | O=C(Nc1ccc(Oc2ccccc2)cc1)C1CCN(C(=O)Cn2c(=O)sc3ccc(Cl)cc32)CC1 |
| – | – | 67.8% | -5.3% | – | – | – | 88.8% | – | Cc1cccc(O)c1NC(=O)C1CCN(C(=O)Cn2c(=O)sc3ccc(Cl)cc32)CC1 |
| – | – | – | – | – | – | – | – | 4.4 nM | O=C(Nc1ccccc1)C1CCN(C(=O)Cn2c(=O)sc3ccc(Cl)cc32)CC1 [FR-235656] |
| – | – | 14.5% | – | – | – | – | – | – | COCCNC(=O)C1CCN(C(=O)Cn2c(=O)sc3ccc(Cl)cc32)CC1 |
| – | – | 86.6% | 68.1% | 31.9% | 10 nM | 2.8 nM | 107% | – | Cc1ccc2nc(NC(=O)C3CCN(C(=O)Cn4c(=O)sc5ccc(Cl)cc54)CC3)sc2c1 |
| – | – | 88.8% | 44.7% | 19.5% | 6.1 nM | 9 nM | 102% | – | NS(=O)(=O)c1ccc(CCNC(=O)C2CCN(C(=O)Cn3c(=O)sc4ccc(Cl)cc43)CC2)cc1 |
| – | – | 101% | 80.5% | 45.3% | 0.89 nM | 1.4 nM | 102% | – | O=C(c1ccccc1)c1cccc(NC(=O)C2CCN(C(=O)Cn3c(=O)sc4ccc(Cl)cc43)CC2)c1 |
| – | – | 59.8% | -3.5% | -4.5% | – | – | 51.4% | – | O=C(Cn1c(=O)sc2ccc(Cl)cc21)N1CCC(C(=O)N2CCCc3ccccc32)CC1 |
| – | – | 106% | 89.6% | – | 1.3 nM | 2.6 nM | – | – | CCCCCCCCCCNC(=O)C1CCN(C(=O)Cn2c(=O)sc3ccc(Cl)cc32)CC1 |
| – | – | – | – | – | – | – | 19.9% | – | O=C(NCCOS(=O)(=O)O)C1CCN(C(=O)Cn2c(=O)sc3ccc(Cl)cc32)CC1 |
